Reference: article PMC10913484, “Hydroxyhexylitaconic acids as potent IMP-type metallo-β-lactamase inhibitors for controlling carbapenem resistance in Enterobacterales” (Microbiology Spectrum, 2024)
In brackets after ≈: the same amount, converted by molar mass. Where two headings read alike, the source gives them in different places.

Key:
[1] = target: T1, IMP-6 (Serratia marcescens, UniProt P52699, S214G); test: In vitro inhibition assay (IPM hydrolysis); assay type: biochemical
T1 construct: made in house
T1 sequence (P52699 19-246 S214G): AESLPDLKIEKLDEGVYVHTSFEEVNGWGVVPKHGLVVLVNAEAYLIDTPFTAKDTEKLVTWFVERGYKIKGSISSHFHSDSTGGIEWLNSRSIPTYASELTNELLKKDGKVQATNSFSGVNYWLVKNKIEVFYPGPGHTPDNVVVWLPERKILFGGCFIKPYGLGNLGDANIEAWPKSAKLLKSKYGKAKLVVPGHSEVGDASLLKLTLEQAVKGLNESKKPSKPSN
Procedure: (§1) MBLs were incubated with HHIAs in 20 mM HEPES buffer (pH 7.5) containing 200 mM NaCl and 50 µg/mL BSA at 30°C for 5 min. IPM was added at a concentration of 100 µM, and the rate of IPM hydrolysis was monitored at 297 nm. The initial velocity (v0) rates were plotted against HHIA’s logarithmic concentrations, and the data were fitted to a four-parameter variable slope to obtain the half-maximal inhibitor concentration (IC50) values using GraphPad Prism 9 software (GraphPad Software). The inhibition constant (Ki) was determined as follows: v0 was measured after varying the concentrations of IPM and HHIAs, and inverse v0 (1/v0) was plotted against the inverse IPM concentration [1/(IPM)]. Lineweaver–Burk plots were created to obtain Ki values under the competitive inhibition model using the SigmaPlot 14 suite (Hulinks).

[2] = system: SMB-1; test: In vitro inhibition assay (IPM hydrolysis); assay type: biochemical; conditions: even at high doses (100 µM)
Procedure: as §1

[3] = target: T2, VIM-2 (Escherichia coli, UniProt Q5U7L7); test: In vitro inhibition assay (IPM hydrolysis); assay type: biochemical
T2 construct: made in house
Procedure: as §1

[4] = system: E. cloacae NUBL-5 (IMP-1); test: Susceptibility test, clinical isolate; assay type: cell-based; conditions: Enterobacter cloacae
Procedure: (§2) Susceptibility testing, based on the microdilution method, was performed according to the guidelines of the Clinical and Laboratory Standards Institute ([36]).

[5] = system: E. coli 426 (IMP-1); test: Susceptibility test, clinical isolate; assay type: cell-based; conditions: Escherichia coli
Procedure: as §2

[6] = system: E. coli 465 (IMP-1); test: Susceptibility test, clinical isolate; assay type: cell-based; conditions: Escherichia coli
Procedure: as §2

[7] = system: E. coli NUBL-22 (IMP-6); test: Susceptibility test, clinical isolate; assay type: cell-based; conditions: Escherichia coli
Procedure: as §2

[8] = system: E. coli NUBL-24 (IMP-1); test: Susceptibility test, clinical isolate; assay type: cell-based; conditions: Escherichia coli
Procedure: as §2

[9] = system: K. oxytoca NUBL-827 (IMP-1); test: Susceptibility test, clinical isolate; assay type: cell-based; conditions: Klebsiella oxytoca
Procedure: as §2

[10] = system: K. pneumoniae AR0034 (IMP-4); test: Susceptibility test, clinical isolate; assay type: cell-based; conditions: Klebsiella pneumoniae
Procedure: as §2

[11] = system: K. pneumoniae AR0076 (VIM-1); test: Susceptibility test, clinical isolate; assay type: cell-based; conditions: Klebsiella pneumoniae
Procedure: as §2

[12] = system: K. pneumoniae MS5674 (NDM-1/VIM-1); test: Susceptibility test, clinical isolate; assay type: cell-based; conditions: Klebsiella pneumoniae
Procedure: as §2

[13] = system: K. pneumoniae NUBL-23 (IMP-6); test: Susceptibility test, clinical isolate; assay type: cell-based; conditions: Klebsiella pneumoniae
Procedure: as §2

[14] = system: K. pneumoniae NUBL-8 (IMP-1); test: Susceptibility test, clinical isolate; assay type: cell-based; conditions: Klebsiella pneumoniae
Procedure: as §2

[15] = system: P. penneri E11-M475 (IMP-1); test: Susceptibility test, clinical isolate; assay type: cell-based; conditions: Proteus penneri
Procedure: as §2

[16] = target: T3, IMP-1 (Serratia marcescens, UniProt P52699); assay type: binding; conditions: DSF; control protein 52.5°C
T3 construct: made in house
T3 sequence (P52699 19-246, looked up, species assumed): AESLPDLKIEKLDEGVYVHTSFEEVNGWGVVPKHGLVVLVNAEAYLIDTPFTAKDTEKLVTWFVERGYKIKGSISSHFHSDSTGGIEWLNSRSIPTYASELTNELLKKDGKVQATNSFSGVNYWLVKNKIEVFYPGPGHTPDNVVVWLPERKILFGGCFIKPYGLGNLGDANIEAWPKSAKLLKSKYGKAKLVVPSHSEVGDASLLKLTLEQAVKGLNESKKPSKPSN
Procedure: The DSF assay was performed using the Protein Thermal Shift Dye Kit (Thermo Fisher Scientific) and StepOnePlus Real-Time PCR Systems (Applied Biosystems) as follows: 2 µL of IMP-1 enzyme (100 µM), 1 µL of EDTA or HHIA solution (5 mM), 2.5 µL of diluted Protein Thermal Shift Dye (32×), 5 µL of Protein Thermal Shift buffer, and 9.5 µL of water were mixed in a test tube and incubated for 15 min at 4°C. Four replicates of each sample were performed. The fluorescence was monitored at 0.7°C increments from 4°C to 99°C. The relative fluorescence units were fitted with the Boltzmann equation using the TSA-CRAFT software to determine the melting point (Tm) ([47]).

[17] = +HHIA 6.25 µg/mL, read-out: IPM MIC
[18] = +HHIA 6.25 μg/mL, read-out: MPM MIC
[19] = +HHIA 25 µg/mL, read-out: IPM MIC
[20] = +HHIA 25 μg/mL, read-out: MPM MIC
[21] = +HHIA 100 µg/mL, read-out: IPM MIC
[22] = +HHIA 100 μg/mL, read-out: MPM MIC

C=C(C(=O)O)C(CCCCCCO)C(=O)O (stereo not shown) [10-HHIA, 10-hydroxyhexylitaconic acid]
Ki [1]: 21 µM
Inhibition of hydrolyzing activity of SMB-1 [2]: did not inhibit
Inhibitory activity against VIM-2 [3]: moderate
MIC [4, 17]: 8 µg/mL (≈ 34.7 µM)
MIC [4, 18]: 16 µg/mL (≈ 69.5 µM)
MIC [4, 19]: 4 µg/mL (≈ 17.4 µM)
MIC [4, 20]: 16 µg/mL (≈ 69.5 µM)
MIC [4, 21]: 1 µg/mL (≈ 4.34 µM)
MIC [4, 22]: 8 µg/mL (≈ 34.7 µM)
MIC [5, 17]: 8 µg/mL (≈ 34.7 µM)
MIC [5, 18]: 8 µg/mL (≈ 34.7 µM)
MIC [5, 19]: 4 µg/mL (≈ 17.4 µM)
MIC [5, 20]: 1 µg/mL (≈ 4.34 µM)
MIC [5, 21]: 2 µg/mL (≈ 8.69 µM)
MIC [5, 22]: 0.25 µg/mL (≈ 1.09 µM)
MIC [6, 17]: 16 µg/mL (≈ 69.5 µM)
MIC [6, 18]: 16 µg/mL (≈ 69.5 µM)
MIC [6, 19]: 4 µg/mL (≈ 17.4 µM)
MIC [6, 20]: 4 µg/mL (≈ 17.4 µM)
MIC [6, 21]: 1 µg/mL (≈ 4.34 µM)
MIC [6, 22]: 0.25 µg/mL (≈ 1.09 µM)
MIC [7, 17]: 1 µg/mL (≈ 4.34 µM)
MIC [7, 18]: 16 µg/mL (≈ 69.5 µM)
MIC [7, 19]: 0.5 µg/mL (≈ 2.17 µM)
MIC [7, 20]: 8 µg/mL (≈ 34.7 µM)
MIC [7, 21]: 0.5 µg/mL (≈ 2.17 µM)
MIC [7, 22]: 1 µg/mL (≈ 4.34 µM)
MIC ([8]; +HHIA 6.25 µg/mL, E. coli NUBL-24 (IMP-1), read-out: IPM MIC): 4 µg/mL (≈ 17.4 µM)
MIC ([8]; +HHIA 6.25 μg/mL, E. coli NUBL-24 (IMP-1), read-out: MPM MIC): 4 µg/mL (≈ 17.4 µM)
MIC ([8]; +HHIA 25 µg/mL, E. coli NUBL-24 (IMP-1), read-out: IPM MIC): 1 µg/mL (≈ 4.34 µM)
MIC ([8]; +HHIA 25 μg/mL, E. coli NUBL-24 (IMP-1), read-out: MPM MIC): 0.5 µg/mL (≈ 2.17 µM)
MIC ([8]; +HHIA 100 µg/mL, E. coli NUBL-24 (IMP-1), read-out: IPM MIC): 1 µg/mL (≈ 4.34 µM)
MIC ([8]; read-out: MPM MIC): 0.125 µg/mL (≈ 0.543 µM)
MIC [9, 17]: 8 µg/mL (≈ 34.7 µM)
MIC [9, 18]: 16 µg/mL (≈ 69.5 µM)
MIC [9, 19]: 4 µg/mL (≈ 17.4 µM)
MIC [9, 20]: 8 µg/mL (≈ 34.7 µM)
MIC [9, 21]: 2 µg/mL (≈ 8.69 µM)
MIC [9, 22]: 1 µg/mL (≈ 4.34 µM)
MIC ([10]; +HHIA 6.25 µg/mL, K. pneumoniae AR0034 (IMP-4), read-out: IPM MIC): 2 µg/mL (≈ 8.69 µM)
MIC ([10]; +HHIA 6.25 μg/mL, K. pneumoniae AR0034 (IMP-4), read-out: MPM MIC): 4 µg/mL (≈ 17.4 µM)
MIC ([10]; +HHIA 25 µg/mL, K. pneumoniae AR0034 (IMP-4), read-out: IPM MIC): 1 µg/mL (≈ 4.34 µM)
MIC ([10]; +HHIA 25 μg/mL, K. pneumoniae AR0034 (IMP-4), read-out: MPM MIC): 0.5 µg/mL (≈ 2.17 µM)
MIC ([10]; +HHIA 100 µg/mL, K. pneumoniae AR0034 (IMP-4), read-out: IPM MIC): 0.5 µg/mL (≈ 2.17 µM)
MIC ([10]; read-out: MPM MIC): 0.125 µg/mL (≈ 0.543 µM)
MIC [11, 17]: 32 µg/mL (≈ 139 µM)
MIC [11, 18]: 32 µg/mL (≈ 139 µM)
MIC [11, 19]: 32 µg/mL (≈ 139 µM)
MIC [11, 20]: 32 µg/mL (≈ 139 µM)
MIC [11, 21]: 16 µg/mL (≈ 69.5 µM)
MIC [11, 22]: 32 µg/mL (≈ 139 µM)
MIC [12, 17]: 32 µg/mL (≈ 139 µM)
MIC [12, 18]: > 64 µg/mL
MIC [12, 19]: 64 µg/mL (≈ 278 µM)
MIC [12, 20]: > 64 µg/mL
MIC [12, 21]: 32 µg/mL (≈ 139 µM)
MIC [12, 22]: 64 µg/mL (≈ 278 µM)
MIC [13, 17]: 0.5 µg/mL (≈ 2.17 µM)
MIC [13, 18]: 32 µg/mL (≈ 139 µM)
MIC [13, 19]: 0.25 µg/mL (≈ 1.09 µM)
MIC [13, 20]: 2 µg/mL (≈ 8.69 µM)
MIC [13, 21]: 0.5 µg/mL (≈ 2.17 µM)
MIC [13, 22]: 0.25 µg/mL (≈ 1.09 µM)
MIC [14, 17]: 2 µg/mL (≈ 8.69 µM)
MIC [14, 18]: 8 µg/mL (≈ 34.7 µM)
MIC [14, 19]: 1 µg/mL (≈ 4.34 µM)
MIC [14, 20]: 2 µg/mL (≈ 8.69 µM)
MIC [14, 21]: 0.5 µg/mL (≈ 2.17 µM)
MIC [14, 22]: 0.25 µg/mL (≈ 1.09 µM)
MIC [15, 17]: > 64 µg/mL
MIC [15, 18]: > 64 µg/mL
MIC [15, 19]: > 64 µg/mL
MIC [15, 20]: > 64 µg/mL
MIC [15, 21]: 64 µg/mL (≈ 278 µM)
MIC [15, 22]: 16 µg/mL (≈ 69.5 µM)
Melting temperature (Tm) of treated IMP-1 [16]: 55.6 °C
